Assay results as given in patent US20240108009A1, “1-AMINO-1-CYCLOPROPANECARBOXYLIC ACID AND JASMONIC ACID MIXTURES AND USES THEREOF” (Valent BioSciences LLC, priority 2022, published 2024).

Assays:
Assay type in all cases: in vivo
Honeycrisp apples [1] = test: Apple coloration in Honeycrisp variety (Example 1), percent red pixel area; conditions: 43 hours post spray; for Average % Red Pixel Area: 50 ppm foliar spray; for Fold Change From control: 50 ppm
Protocol: 10 sets of unripened green apples, Honeycrisp variety, harvested three weeks before the normal harvest date, were each foliar sprayed with either 1) 0.05% of a mixture of polyoxyethylene-polyoxypropylene polymer, propylene glycol, 2-butoxyethanol (Regulaid®, Regulaid is a registered trademark of Kalo, Inc.) as a control, 2) 50 parts per million (“ppm”) jasmonic acid, 3) 50 ppm ACC or 4) a mixture of 50 ppm jasmonic acid and 50 ppm ACC. 43 hours post spray application percent red pixel area (shaded) was measured. Percent red pixel area is an indication of the coloration of the apple fruit.
(§1) To determine if the mixture provided unexpected results, the observed combined efficacy (“OCE”) was divided by the expected combined efficacy (“ECE”) wherein the ECE is calculated by the Abbott method: […]
(§2) wherein ECE is the expected combined efficacy and in which A and B are the fold change from control given by the single active ingredients. If the ratio between the OCE of the mixture and the ECE of the mixture is greater than 1, then greater than expected interactions are present in the mixture. (Gisi, Synergistic Interaction of Fungicides in Mixtures, The American Phytopathological Society, 86:11, 1273-1279, 1996).

Gala apples [2] = test: Apple coloration in Gala variety (Example 2, Table 2); conditions: 34 hours post spray; for Average % Red Pixel Area: 300 ppm foliar spray; for Fold Change From control: 300 ppm
Protocol: as §1, §2
(§3) 10 sets of unripened apples, Gala variety, harvested three weeks before the normal harvest date, were each foliar sprayed with either 1) 0.05% Regulaid® as a control, 2) 300 ppm jasmonic acid, 3) 300 ppm ACC or 4) a mixture of 300 ppm jasmonic acid and 300 ppm ACC. 34 hours post spray application percent red pixel area (shaded) was measured. Additionally, this study was repeated while adding [S]-trans-2-Amino-4-(2-aminoethoxy)-3-butenoic acid hydrochloride (Retain®, Retain is a registered trademark of Valent BioSciences LLC) to the application.

Gala apples [3] = test: Apple coloration in Gala variety, study repeated with Retain added (Example 2, Table 3); conditions: 300 ppm, 34 hours post spray; for Average % Red Pixel Area: Retain added to the application; for Fold Change From control: Retain added
Protocol: as §1, §2, §3

Imperial Gala apples = test: Apple coloration in Imperial Gala variety (Example 3); conditions: 34 hours post spray
Protocol: as §1, §2
10 sets of unripened apples, Imperial Gala variety, harvested three weeks before the normal harvest date, were each foliar sprayed with either 1) 0.05% Regulaid® as a control, 2) 50 ppm jasmonic acid, 3) 300 ppm jasmonic acid, 4) 50 ppm ACC, 5) 300 ppm ACC, 6) a mixture of 50 ppm jasmonic acid and 50 ppm ACC or 7) a mixture of 300 ppm jasmonic acid and 300 ppm ACC. 34 hours post spray application percent red pixel area (shaded) was measured.

Ultima Gala apples = test: Apple coloration in Ultima Gala variety (Example 4); conditions: 34 hours post spray
Honeycrisp apples [4] = test: Apple coloration in Honeycrisp variety (Example 5); conditions: 34 hours post spray
Protocol: as §1, §2
(§4) 10 sets of unripened apples, Honeycrisp variety, harvested three weeks before the normal harvest date, were each foliar sprayed with either 1) 0.05% Regulaid® as a control, 2) 50 ppm jasmonic acid, 3) 300 ppm jasmonic acid, 4) 50 ppm ACC, 5) 300 ppm ACC, 6) a mixture of 50 ppm jasmonic acid and 50 ppm ACC, 7) a mixture of 50 ppm jasmonic acid and 300 ppm ACC, 8) a mixture of 300 ppm jasmonic acid and 50 ppm ACC or 9) a mixture of 300 ppm jasmonic acid and 300 ppm ACC. 34 hours post spray application percent red pixel area (shaded) was measured.

Fuji apples = test: Apple coloration in Fuji variety (Example 6); conditions: 34 hours post spray
Protocol: as §1, §2
as §4, with “Fuji” for “Honeycrisp”

Red Aztec Fuji apples = test: Apple coloration in Red Aztec Fuji variety (Example 7); conditions: 34 hours post spray
Protocol: as §1, §2
as §4, with “Red Aztec Fuji” for “Honeycrisp”

Aztec Fuji apples = test: Apple coloration in Aztec Fuji variety (Example 8); conditions: 34 hours post spray
Protocol: as §1, §2
as §4, with “Aztec Fuji” for “Honeycrisp”

Evercrisp apples = test: Apple coloration in Evercrisp variety (Example 9); conditions: 34 hours post spray
Cripps Pink apples [5] = test: Apple coloration in Cripps Pink variety (Example 10); conditions: Cripps Pink (Example 10), 34 hours post spray
Protocol: as §1, §2
as §4, with “Cripps Pink” for “Honeycrisp”

Cripps Pink apples [6] = test: Apple coloration in Cripps Pink variety, repeat (Example 11); conditions: Cripps Pink (Example 11, repeat), 34 hours post spray
Protocol: as §1, §2
as §4, with “The experiment detailed in Example 10 was repeated. Specifically, 10” for “10”, “Cripps Pink” for “Honeycrisp”, “measured. The OCE/ECE ratio formula was modified to ECE=A+B−(A*B) to account for reduced average % red pixel area over control for each of the ACC applications.” for “measured.”

Pink Lady apples [7] = test: Apple coloration in Pink Lady variety (Example 12); conditions: 34 hours post spray
Protocol: as §1, §2
as §4, with “Pink Lady” for “Honeycrisp”, “measured. The OCE/ECE ratio formula was modified to ECE=A+B−(A*B) to account for reduced average % red pixel area over control for each of the ACC applications.” for “measured.”

Pink Lady apples [8] = test: Apple coloration in Pink Lady variety, 100 ppm (Example 13); conditions: 34 hours post spray
Protocol: as §1, §2
10 sets of unripened apples, Pink Lady variety, harvested three weeks before the normal harvest date, were each foliar sprayed with either 1) 0.05% Regulaid® as a control, 2) 100 ppm jasmonic acid, 3) 100 ppm ACC and 4) a mixture of 100 ppm jasmonic acid and 100 ppm ACC. 34 hours post spray application percent red pixel area (shaded) was measured. The OCE/ECE ratio formula was modified to ECE=A+B−(A*B) to account for reduced average % red pixel area over control for each of the ACC applications.

Compound: NC1(C(=O)O)CC1 [ACC, 1-amino-1-cyclopropanecarboxylic acid]
- Average % Red Pixel Area (Honeycrisp apples [1]): 4.74%
- Fold Change From control (Honeycrisp apples [1]): 1.18
- Average % Red Pixel Area (Gala apples [2]): 3.63%
- Fold Change From control (Gala apples [2]): 0.92
- Average % Red Pixel Area (Gala apples [3]): 4.71%
- Fold Change From control (Gala apples [3]): 1.03
- Average % Red Pixel Area (Imperial Gala apples; 50 ppm): 7.02%
- Fold Change From control (Imperial Gala apples; 50 ppm): 0.03
- Average % Red Pixel Area (Imperial Gala apples; 300 ppm): 4.66%
- Fold Change From control (Imperial Gala apples; 300 ppm): −0.31
- Average % Red Pixel Area (Ultima Gala apples; 50 ppm): 10.44%
- Fold Change From control (Ultima Gala apples; 50 ppm): −0.06
- Average % Red Pixel Area (Ultima Gala apples; 300 ppm): 14.87%
- Fold Change From control (Ultima Gala apples; 300 ppm): 0.34
- Average % Red Pixel Area (Honeycrisp apples [4]; 50 ppm): 4.70%
- Fold Change From control (Honeycrisp apples [4]; 50 ppm): −0.49
- Average % Red Pixel Area (Honeycrisp apples [4]; 300 ppm): 3.80%
- Fold Change From control (Honeycrisp apples [4]; 300 ppm): 0.59
- Average % Red Pixel Area (Fuji apples; 50 ppm): 20.61%
- Fold Change From control (Fuji apples; 50 ppm): 0.02
- Average % Red Pixel Area (Fuji apples; 300 ppm): 25.47%
- Fold Change From control (Fuji apples; 300 ppm): 0.26
- Average % Red Pixel Area (Red Aztec Fuji apples; 50 ppm): 17.08%
- Fold Change From control (Red Aztec Fuji apples; 50 ppm): −0.04
- Average % Red Pixel Area (Red Aztec Fuji apples; 300 ppm): 15.84%
- Fold Change From control (Red Aztec Fuji apples; 300 ppm): −0.11
- Average % Red Pixel Area (Aztec Fuji apples; 50 ppm): 35.07%
- Fold Change From control (Aztec Fuji apples; 50 ppm): 0.10
- Average % Red Pixel Area (Aztec Fuji apples; 300 ppm): 29.25%
- Fold Change From control (Aztec Fuji apples; 300 ppm): −0.09
- Average % Red Pixel Area (Evercrisp apples; 50 ppm): 46.78%
- Fold Change From control (Evercrisp apples; 50 ppm): 1.48
- Average % Red Pixel Area (Evercrisp apples; 300 ppm): 72.16%
- Fold Change From control (Evercrisp apples; 300 ppm): 2.82
- Average % Red Pixel Area (Cripps Pink apples [5]; 50 ppm): 54.12%
- Fold Change From control (Cripps Pink apples [5]; 50 ppm): 6.67
- Average % Red Pixel Area (Cripps Pink apples [5]; 300 ppm): 57.97%
- Fold Change From control (Cripps Pink apples [5]; 300 ppm): 7.15
- Average % Red Pixel Area (Cripps Pink apples [6]; 50 ppm): 34.68%
- Fold Change From control (Cripps Pink apples [6]; 50 ppm): 0.70
- Average % Red Pixel Area (Cripps Pink apples [6]; 300 ppm): 48.78%
- Fold Change From control (Cripps Pink apples [6]; 300 ppm): 0.99
- Average % Red Pixel Area (Pink Lady apples [7]; 50 ppm): 24.63%
- Fold Change From control (Pink Lady apples [7]; 50 ppm): 0.68
- Average % Red Pixel Area (Pink Lady apples [7]; 300 ppm): 28.83%
- Fold Change From control (Pink Lady apples [7]; 300 ppm): 0.80
- Average % Red Pixel Area (Pink Lady apples [8]): 19.32%
- Fold Change From control (Pink Lady apples [8]): 0.80

Compound: CC/C=C\C[C@H]1C(=O)CC[C@@H]1CC(=O)O [jasmonic acid]
- Average % Red Pixel Area (Honeycrisp apples [1]): 38.66%
- Fold Change From control (Honeycrisp apples [1]): 9.64
- Average % Red Pixel Area (Gala apples [2]): 61.5%
- Fold Change From control (Gala apples [2]): 15.53
- Average % Red Pixel Area (Gala apples [3]): 24.85%
- Fold Change From control (Gala apples [3]): 5.41
- Average % Red Pixel Area (Imperial Gala apples; 50 ppm): 30.90%
- Fold Change From control (Imperial Gala apples; 50 ppm): 3.54
- Average % Red Pixel Area (Imperial Gala apples; 300 ppm): 45.18%
- Fold Change From control (Imperial Gala apples; 300 ppm): 5.65
- Average % Red Pixel Area (Ultima Gala apples; 50 ppm): 43.46%
- Fold Change From control (Ultima Gala apples; 50 ppm): 2.91
- Average % Red Pixel Area (Ultima Gala apples; 300 ppm): 63.02%
- Fold Change From control (Ultima Gala apples; 300 ppm): 4.67
- Average % Red Pixel Area (Honeycrisp apples [4]; 50 ppm): 5.00%
- Fold Change From control (Honeycrisp apples [4]; 50 ppm): −0.46
- Average % Red Pixel Area (Honeycrisp apples [4]; 300 ppm): 31.37%
- Fold Change From control (Honeycrisp apples [4]; 300 ppm): 2.42
- Average % Red Pixel Area (Fuji apples; 50 ppm): 24.55%
- Fold Change From control (Fuji apples; 50 ppm): 0.21
- Average % Red Pixel Area (Fuji apples; 300 ppm): 60.29%
- Fold Change From control (Fuji apples; 300 ppm): 1.98
- Average % Red Pixel Area (Red Aztec Fuji apples; 50 ppm): 22.53%
- Fold Change From control (Red Aztec Fuji apples; 50 ppm): 0.26
- Average % Red Pixel Area (Red Aztec Fuji apples; 300 ppm): 75.2%
- Fold Change From control (Red Aztec Fuji apples; 300 ppm): 3.21
- Average % Red Pixel Area (Aztec Fuji apples; 50 ppm): 38.27%
- Fold Change From control (Aztec Fuji apples; 50 ppm): 0.20
- Average % Red Pixel Area (Aztec Fuji apples; 300 ppm): 71.99%
- Fold Change From control (Aztec Fuji apples; 300 ppm): 1.25
- Average % Red Pixel Area (Evercrisp apples; 50 ppm): 40.67%
- Fold Change From control (Evercrisp apples; 50 ppm): 1.15
- Average % Red Pixel Area (Evercrisp apples; 300 ppm): 70.81%
- Fold Change From control (Evercrisp apples; 300 ppm): 2.75
- Average % Red Pixel Area (Cripps Pink apples [5]; 50 ppm): 30.79%
- Fold Change From control (Cripps Pink apples [5]; 50 ppm): 3.80
- Average % Red Pixel Area (Cripps Pink apples [5]; 300 ppm): 79.81%
- Fold Change From control (Cripps Pink apples [5]; 300 ppm): 9.84
- Average % Red Pixel Area (Cripps Pink apples [6]; 50 ppm): 63.91%
- Fold Change From control (Cripps Pink apples [6]; 50 ppm): 1.30
- Average % Red Pixel Area (Cripps Pink apples [6]; 300 ppm): 85.52%
- Fold Change From control (Cripps Pink apples [6]; 300 ppm): 1.74
- Average % Red Pixel Area (Pink Lady apples [7]; 50 ppm): 68.55%
- Fold Change From control (Pink Lady apples [7]; 50 ppm): 1.91
- Average % Red Pixel Area (Pink Lady apples [7]; 300 ppm): 76.7%
- Fold Change From control (Pink Lady apples [7]; 300 ppm): 2.13
- Average % Red Pixel Area (Pink Lady apples [8]): 49.9%
- Fold Change From control (Pink Lady apples [8]): 2.06
